This passage reports EC50 and IC50 results from patent US10364226B2, “Pyridazinone compounds and uses thereof” (priority 2013, dated 2019).

The test system of experiment [1] is Influenza strain A549 A/WSN/33 (H1N1). The experiment in a line: Influenza Antiviral Assay. It is filed as cell-based, Influenza A virus. The note with it: Influenza A virus, A549, 20 h, neuraminidase fluorescence readout, read-out: % Inhibition.
In experiment [2] the target is EN PA (Influenza A virus, UniProt P15659). The experiment in a line: EN PA FRET Inhibition Assay. The note with it: read-out: Potency. It is filed as biochemical.

In the case of `O=C(O)c1nn(-c2cccc(C(F)(F)F)c2)cc(O)c1=O` [Compound 1, 5-hydroxy-4-oxo-1-(3-(trifluoromethyl)phenyl)-1,4-dihydropyridazine-3-carboxylic acid], the EC50 in experiment [1] is greater than 100 µM. The IC50 in experiment [2] fell in the range of 0.1 to 1 µM.

Regarding `CCN(CC)S(=O)(=O)c1ccc(OC)c(-n2cc(O)c(=O)c(C(=O)O)n2)c1` [Compound 2, 1-(5-(N,N-diethylsulfamoyl)-2-methoxyphenyl)-5-hydroxy-4-oxo-1,4-dihydropyridazine-3-carboxylic acid], in experiment [1], the EC50 is greater than 100 µM. The IC50 in experiment [2] was 0.1 to 1 µM. Consider `O=C(O)c1nn(-c2ccc(F)cc2)cc(O)c1=O` [Compound 4], for which, in experiment [1], the EC50 is greater than 100 µM. Besides, in experiment [2], the IC50 lay within 0.1 to 1 µM. In the case of `O=C(O)c1nn(-c2cccc(Oc3ccccc3)c2)cc(O)c1=O` [Compound 6], the EC50 in experiment [1] was greater than 100 µM. For the same molecule, the IC50 in experiment [2] lay within 0.1 to 1 µM. Take `O=C(O)c1nn(-c2ccccc2C(F)(F)F)cc(O)c1=O` [Compound 7]: the EC50 in experiment [1] was greater than 100 µM. Besides, the IC50 in experiment [2] lay within 0.1 to 1 µM. As to `O=C(O)c1nn(-c2ccccc2Oc2ccccc2)cc(O)c1=O` [Compound 9], the EC50 in experiment [1] was greater than 100 µM. Besides, in experiment [2], the IC50 fell in the range of 0.1 to 1 µM.

With `O=C(O)c1nn(-c2ccc3c(c2)CCC3)cc(O)c1=O` [Compound 10], the EC50 in experiment [1] is greater than 100 µM. Further, in experiment [2], the IC50 was 0.1 to 1 µM. Take `O=C(O)c1nn(-c2ccccc2N2CCCCC2)cc(O)c1=O` [Compound 11]: in experiment [1], the EC50 is greater than 100 µM. In experiment [2], the IC50 lay in the range of 0.1 to 1 µM. Regarding `CS(=O)(=O)Nc1cccc(-n2cc(O)c(=O)c(C(=O)O)n2)c1` [Compound 17], the EC50 in experiment [1] was greater than 100 µM. For the same molecule, the IC50 in experiment [2] was in the range of 0.1 to 1 µM. The matching figures for `O=C(O)c1nn(-c2ccccc2-c2ccccc2)cc(O)c1=O` [Compound 18]: greater than 100 µM and 0.1 to 1 µM. The matching figures for `CN(Cc1ccccc1-n1cc(O)c(=O)c(C(=O)O)n1)C1CCCCC1` [Compound 19]: greater than 100 µM and 0.1 to 1 µM. As to `O=C(O)c1nn(-c2cc(C(F)(F)F)cc(C(F)(F)F)c2)cc(O)c1=O` [Compound 20], in experiment [1], the EC50 is greater than 100 µM. In experiment [2], the IC50 is 0.1 to 1 µM.

Take `O=C(O)c1nn(-c2ccccc2OC(F)(F)F)cc(O)c1=O` [Compound 21]: the EC50 in experiment [1] was greater than 100 µM. For the same molecule, in experiment [2], the IC50 was less than 0.1 µM. For the molecule `O=C(O)c1nn(-c2ccccc2S(=O)(=O)c2ccccc2)cc(O)c1=O` [Compound 24], the EC50 in experiment [1] is greater than 100 µM. Also, the IC50 in experiment [2] is less than 0.1 µM. With `O=C(O)c1nn(-c2ccccc2-c2ccccc2-c2ccccc2)cc(O)c1=O` [Compound 35], the EC50 in experiment [1] is less than 20 µM. Further, the IC50 in experiment [2] was less than 0.1 µM. Regarding `O=C(O)c1nn(-c2ccccc2N2CCCC2Cc2ccccc2)cc(O)c1=O` (stereo not drawn) [Compound 203], in experiment [1], the EC50 is 20 to 100 µM. Further, the IC50 in experiment [2] is 0.1 to 1 µM. For `CC1(C)CCN(c2ccccc2-n2cc(O)c(=O)c(C(=O)O)n2)CC1` [Compound 206] the same measures were 20 to 100 µM and 0.1 to 1 µM. With `CC(C)C1CCN(c2ccccc2-n2cc(O)c(=O)c(C(=O)O)n2)CC1` [Compound 207], the EC50 in experiment [1] fell in the range of 20 to 100 µM. Further, the IC50 in experiment [2] is 0.1 to 1 µM. The matching figures for `CC1CCCN(c2ccccc2-n2cc(O)c(=O)c(C(=O)O)n2)C1` (stereo not drawn) [Compound 210]: greater than 100 µM and 0.1 to 1 µM.

`O=C(O)c1nn(-c2ccccc2N2CCCC(c3ccccc3)C2)cc(O)c1=O` (stereo not drawn) [Compound 211]: the EC50 in experiment [1] was in the range of 20 to 100 µM. The IC50 in experiment [2] was in the range of 0.1 to 1 µM.

As to `Cc1ccc(OC(C)C)c(-c2ccccc2-n2cc(O)c(=O)c(C(=O)O)n2)c1` [Compound 314], in experiment [1], the EC50 is greater than 100 µM. The IC50 in experiment [2] lay within 0.1 to 1 µM. Regarding `O=C(O)c1nn(-c2ccccc2-c2ccccc2OC2CCCC2)cc(O)c1=O` [Compound 319], in experiment [1], the EC50 was less than 20 µM. For the same molecule, the IC50 in experiment [2] was in the range of 0.1 to 1 µM. With `O=C(O)c1nn(-c2ccccc2-c2ccc3[nH]ccc3c2)cc(O)c1=O` [Compound 320], the EC50 in experiment [1] is greater than 100 µM. For the same molecule, in experiment [2], the IC50 is 0.1 to 1 µM. As to `O=C(O)c1nn(CCc2ccccc2C(F)(F)F)cc(O)c1=O` [Compound 400, 1-(2-(trifluoromethyl)phenethyl)-1,4-dihydro-5-hydroxv-4-oxopyridazine-3-carboxylic acid], in experiment [1], the EC50 is greater than 100 µM. For the same molecule, the IC50 in experiment [2] was less than 0.1 µM. As to `O=C(O)c1nn(CCc2ccccc2)cc(O)c1=O` [Compound 401], in experiment [1], the EC50 was greater than 100 µM. The IC50 in experiment [2] is 0.1 to 1 µM. For `O=C(O)c1nn(CCCc2ccccc2)cc(O)c1=O` [Compound 402], the EC50 in experiment [1] is greater than 100 µM. In addition, the IC50 in experiment [2] is 0.1 to 1 µM. As to `O=C(O)c1nn(Cc2ccccc2-c2ccccc2)cc(O)c1=O` [Compound 403], in experiment [1], the EC50 is greater than 100 µM. Moreover, the IC50 in experiment [2] is less than 0.1 µM. Turning to `CNC(=O)c1nn(CC2(c3cccc(-c4ccncc4)c3)CCCC2)cc(O)c1=O` [Compound 732], in experiment [1], the EC50 was greater than 100 µM.

Regarding `CNC(=O)c1nn(CC2(c3cccc(-c4ccc(OC)nc4)c3)CCCC2)cc(O)c1=O` [Compound 734], the EC50 in experiment [1] is greater than 100 µM. As to `CNC(=O)c1nn(CC2(c3cccc(-c4cnc5ccccc5c4)c3)CCCC2)cc(O)c1=O` [Compound 735], in experiment [1], the EC50 was greater than 100 µM. Same read-out and setting: with `CNC(=O)c1nn(CC2(c3cccc(-c4cncc(F)c4)c3)CCCC2)cc(O)c1=O` [Compound 736] the figure was greater than 100 µM; with `CNC(=O)c1nn(CC2(c3ccc(-c4ccc5c(c4)OCO5)cc3)CC2)cc(O)c1=O` [Compound 737], less than 20 µM; with `CNC(=O)c1nn(CC2(c3cccc(-c4ccco4)c3)CC2)cc(O)c1=O` [Compound 739], greater than 100 µM. `CNC(=O)c1nn(CC2(c3cccc(-c4ccoc4)c3)CC2)cc(O)c1=O` [Compound 744]: the EC50 in experiment [1] was greater than 100 µM. On the same count and under the same terms, to `CNC(=O)c1nn(CC2(c3cccc(-c4ccco4)c3)CCCC2)cc(O)c1=O` [Compound 745] belongs less than 20 µM; to `O=C(NCc1ccc(F)c(Cl)c1)c1nn(CC2(c3ccc(-c4ccccc4)cc3)CCCC2)cc(O)c1=O` [Compound 746], greater than 100 µM. Same read-out and setting: with `CNC(=O)c1nn(CC2(c3cccc(-c4cnn(C)c4)c3)CC2)cc(O)c1=O` [Compound 748] the figure was greater than 100 µM; with `O=C(NCc1ccc(F)c(Cl)c1)c1nn(CC2(c3cccc(Oc4ccccc4)c3)CCCC2)cc(O)c1=O` [Compound 751], greater than 100 µM. As to `CNC(=O)c1nn(CC2(c3ccc(-c4cncc(F)c4)cc3)CCCC2)cc(O)c1=O` [Compound 763], the EC50 in experiment [1] was less than 20 µM. On the same count and under the same terms, to `CNC(=O)c1nn(CC2(c3cccc(-c4ccn[nH]4)c3)CCCC2)cc(O)c1=O` [Compound 767] belongs less than 20 µM. The same measure, in the same setting: with `CNC(=O)c1nn(CC2(c3cccc(-c4cnn(C)c4)c3)CCCC2)cc(O)c1=O` [Compound 769] the figure was greater than 100 µM; with `CNC(=O)c1nn(CC2(c3ccc(-c4ccc(OC)nc4)cc3)CCCC2)cc(O)c1=O` [Compound 770], less than 20 µM. As to `CNC(=O)c1nn(CC2(c3ccc(-c4ccnn4C)cc3)CCCC2)cc(O)c1=O` [Compound 779], the EC50 in experiment [1] was greater than 100 µM.

As to `CNC(=O)c1nn(CC2(c3ccc(-c4cc[nH]n4)cc3)CCCC2)cc(O)c1=O` [Compound 780], the EC50 in experiment [1] was less than 20 µM. Same read-out and setting: to `CNC(=O)c1nn(CC2(c3ccc(-c4ccncc4)cc3)CCCC2)cc(O)c1=O` [Compound 781] belongs less than 20 µM.
